Measured values: patent US20260132165A1, “MODIFIED NUCLEOSIDE ANALOGUE AND USE THEREOF, AND NUCLEOSIDE ANALOGUE-CONTAINING DOUBLE-STRANDED OLIGONUCLEOTIDE AND USE THEREOF” (RIGERNA THERAPEUTICS (BEIJING) CO., LTD., priority 2023, published 2026)
Strand notation (5' to 3'): a small letter for the sugar, then the base; units joined by * are phosphorothioate-linked, units joined directly phosphodiester-linked; [ ] holds rarer units or linkages, { } end groups; capitals alone tell only the bases. m = 2'-O-methyl; f = 2'-fluoro

Columns and labels:
SOD1 = assay: Test Example 2: inhibitory activity of NM031 conjugated siRNA on SOD1 by intrathecal administration to mice; format: in vivo, C57BL/6j mice; details: intrathecal, 800 μg per mouse, D9
Method: 6-8 Week-old C57BL/6j mice were randomly grouped into 4 groups by body weight. PBS group was dosed with siRNA-free PBS solution, RX899001 group was dosed with siRNA compound RX899001 without vector conjugation, RZ899001 group was dosed with siRNA RZ899001 (the sense strand with the Uhd conjugation at Position 4) prepared in Example 1, and RZ899008 was dosed with siRNA RZ899008 (the sense strand with the NM031 conjugation at Position 4) prepared in Example 1. Mices in each group were anesthetized with isoflurane. After anesthetization, lumbar region thereof was sprayed wet with 75% disinfecting alcohol. 10 μL (concentration […]) of siRNA drug containing PBS solvent was sucked with an insulin injection needle, the mouse lumbar region was pinched with the left-hand index finger and thumb, patella crest was propped against, and needle was held by the right hand. The needle was bent by forceps in advance, wherein the needle was first bent in the middle by 80° to 90°, then a front half part of the needle was bent in half, and the whole needle was bent in an are shape of about 60° to 90°. Mouse abdominal region was padded with an article with a thickness of about 2 cm. The needle was inserted from a joint of lumbar spines L5 and L6 of mice, and when inserting the needle, the hand was slightly inclined forwards to insert the needle. […] After completion of the injection, the needle was slowly withdrawn at uniform velocity. The administration dose to each mouse in RX899001 group, RZ899001 group and RZ899008 group was 800 μg, a total volume injected was 10 μL, and the PBS group was administered with the same volume of siRNA-free PBS solution. After the animals woke up, the animals were returned back to the animal feeding room and further fed. The day of administration was recorded as first day (D1), and the mice were sacrificed on ninth day (D9). Lumbar spine, thoracic spine and cerebellum were respectively taken and stored in the RNAlater.
RNA extraction: an appropriate amount of lumbar spine, thoracic spine and cerebellum samples were respectively taken out from the RNAlater, and smashed for 60 s in Tissuelyser type II full-automatic tissue homogenizer, and total RNAs of various tissue samples were extracted using the full-automatic nucleic acid extraction instrument and the nucleic acid extraction kit from Zhejiang Hanwei Science and Technology Co. Ltd. according to methods described in instructions. Reverse transcription reaction: 1 μg of the extracted total RNAs of various tissue samples were respectively taken, and configured into 20 μL of reverse transcription system according to a method described in kit instructions by using a reverse transcription kit (Reverse Transcription System, A3500) from Promega Corporation and selecting Oligo (dT)15 reverse transcription primers, and the reverse transcription reaction was completed. After the reaction was ended, 80 μL of RNase-Free water was added into the reverse transcription system to provide cDNA solution for Real-time PCR detection.
Real-time PCR detection: 20 μL of Real-time PCR reaction system per PCR detection well was configured according to a method described in kit instructions using SYBR™ Select Master Mix (Catalog number: 4472908) reagent from ABI company. Each detection system contained 5 μL of cDNA template obtained from the above reverse transcription reaction, 10 μL of SYBR™ Select Master Mix, 0.5 μL of 10 μM upstream primers, 0.5 μL of 10 μM downstream primers (see TABLE 5 for primer information), and 4 μL of RNase-Free H2O. The configured reaction system was subjected to Real-time PCR amplification on ABI StepOnePlus PCR instrument by a three-step method, wherein an amplification procedure was pre-denaturation at 95° C. for 10 min, then denaturation at 95° C. for 30 s, annealing at 60° C. for 30 s, and extension at 72° C. for 30 s; and processes of denaturation, annealing, and extension were repeated for 40 cycles. […]

target gene SOD1 = assay: Test Example 3: inhibitory activity of lipid conjugated siRNA sequences on SOD1 by lateral ventricle administration to mice; format: in vivo, C57BL/6j mice; details: 200 μg per mouse, D5
Method: 6-8 Week-old C57BL/6j mice were randomly grouped by body weight. Mice in each group were administered with siRNA by lateral ventricle administration, with an administration dose per mouse depending on a specific test. Taking Bregma in mouse brain as point 0 (origin), coordinates of right ventricle were found using the cerebral stereotaxic apparatus and position was marked on surface of skull (position of lateral ventricle was AP (anteroposterior, bregma anterior and posterior): −0.58 mm, ML (mediolateral, left and right of middle raphe): −1.2 mm, DV (dorsoventral, up and down cerebral dura mater plane): −2.2 mm). A dental electric drill was used to drill in the skull above a position of interest, and then medicament was injected into the lateral ventricle by a micro-dosing pump, wherein a total injection volume was 5 μL, and injection duration was 10 min. Needle was retained for 5 min after completion of injection, and then slowly withdrawn. Afterwards, needle hole was sealed with biomedical glue, and then head skin was adhered. After animals woke up, the animals were returned back to animal house and further fed. PBS control group was administered with the same volume of siRNA-free PBS solution. The day of administration was recorded as 0 day (D0), and the mice were sacrificed at observation point after the administration. Different parts of brain region were respectively taken and stored in the RNAlater.
RNA extraction: the above tissue samples were taken out from the RNAlater, and smashed for 60 s in Tissuelyser type II full-automatic tissue homogenizer, and total RNAs of various tissue samples were extracted using the full-automatic nucleic acid extraction instrument and the nucleic acid extraction kit from Zhejiang Hanwei Science and Technology Co. Ltd. according to methods described in instructions.
Reverse transcription reaction: 1 μg of the extracted total RNAs of the tissue samples were taken, and configured into 20 μL of reverse transcription system according to a method described in kit instructions by using a reverse transcription kit (Reverse Transcription System, A3500) from Promega Corporation and selecting Oligo (dT)15 reverse transcription primers, and the reverse transcription reaction was completed. After the reaction was ended, 80 μL of RNase-Free water was added into the reverse transcription system to provide cDNA solution for Real-time PCR detection.
Real-time PCR detection: 20 μL of Real-time PCR reaction system per PCR detection well was configured according to a method described in kit instructions using SYBR™ Select Master Mix (Catalog number: 4472908) reagent from ABI company. Each detection system contained 5 μL of cDNA template obtained from the above reverse transcription reaction, 10 μL of SYBR™ Select Master Mix, 0.5 μL of 10 μM upstream primers, 0.5 μL of 10 μM downstream primers, and 4 μL of RNase-Free H2O. The configured reaction system was subjected to Real-time PCR amplification on ABI StepOnePlus PCR instrument by a three-step method, wherein an amplification procedure was pre-denaturation at 95° C. for 10 min, then denaturation at 95° C. for 30 s, annealing at 60° C. for 30 s, and extension at 72° C. for 30 s; and processes of denaturation, annealing, and extension were repeated for 40 cycles. Gene expression differences were calculated by the ΔΔCt method after completion of the procedure.
In the real-time fluorescence quantitative PCR method, relative quantitative calculation of remaining expression level and inhibition rate of gene mRNA of interest in various test groups was performed by the ΔΔCt method, and the calculation method is as follows: […]

Row | Substance | Cerebellum Mean value of inhibition rate % (SOD1) [%] | Lumbar spine Mean value of inhibition rate % (SOD1) [%] | Thoracic spine Mean value of inhibition rate % (SOD1) [%] | Cerebellum Mean value of inhibition rate % (target gene SOD1) [%] | Cortex Mean value of inhibition rate % (target gene SOD1) [%] | Hippocampus Mean value of inhibition rate % (target gene SOD1) [%]
1 | RX899001: siRNA compound without vector conjugation, SOD1 sequence; sense SEQ ID NO: 1, antisense SEQ ID NO: 2 (sense mU*mU*mUmUmAmAfUfCfCmUmCmAmCmUmCmUmAmAmA; antisense mU*fU*mUmAmGfAmGmUmGmAmGmGmAfUmUfAmAmAmA*mU*mG) [reference compound] | 14.01 | 7.54 | 41.98 | – | – | –
2 | RZ899001: control siRNA, the sense strand with the Uhd conjugation at Position 4; SEQ ID NO: 4 / 2 (sense UUUNAAUCCUCACUCUAAA; antisense UUUAGAGUGAGGAUUAAAAUG; Uhd conjugate at sense position 4; modified_base 1..2 OTHER; 2'-methoxy and 5'-thiophosphate modified nucleotides; modified_base 3 OTHER; 2'-methoxy modified nucleotide; modified_base 4 OTHER; n is the synthetic nucleotide analog Uhd as described in the disclosure.; modified_base 5..6 OTHER; 2'-methoxy modified nucleotides; modified_base 7..9 OTHER; 2'-fluoro modified nucleotides; modified_base 10..19 OTHER; 2'-methoxy modified nuc; modified_base 1 OTHER; 2'-methoxy and 5'-thiophosphate modified nucleotide; modified_base 2 OTHER; 2'-fluoro and 5'-thiophosphate modified nucleotide; …) [reference compound] | 60.22 | 64.13 | 60.27 | – | – | –
3 | RZ899052: siRNA, the sense strand with the NM058 conjugation at Position 5; SEQ ID NO: 5 / 22 (sense UUUUNAUCCUCACUCUAAA; antisense UUUAGAGUGAGGAUUAAAAUG; NM058 conjugate at sense position 5; modified_base 1..2 OTHER; 2'-methoxy and 5'-thiophosphate modified nucleotides; modified_base 3..4 OTHER; 2'-methoxy modified nucleotides; modified_base 5 OTHER; n is the synthetic nucleotide analog NM058 as described in the disclosure(e.g., NM058-1 (1N-(9-[(2S,5R)-5-{[bis(4-methoxyphenyl)(phenyl)methoxy]methyl}-3,4-dihydroxytetrahydrofuran-2-yl]-9H-purin-6-yl)benzamide)).; modified_base 6 OTHER; modified_base 1 OTHER; 2'-methoxy and 5'-thiovinylphosphonate modified nucleotide; modified_base 2 OTHER; 2'-fluoro and 5'-thiophosphate modified nucleotide; …) | – | – | – | 53.02 | 62.93 | 87.35
4 | RZ899053: siRNA, the sense strand with the NM058 conjugation at Position 6; SEQ ID NO: 6 / 22 (sense UUUUANUCCUCACUCUAAA; antisense UUUAGAGUGAGGAUUAAAAUG; NM058 conjugate at sense position 6; modified_base 1..2 OTHER; 2'-methoxy and 5'-thiophosphate modified nucleotides; modified_base 3..5 OTHER; 2'-methoxy modified nucleotides; modified_base 6 OTHER; n is the synthetic nucleotide analog NM058 as described in the disclosure(e.g., NM058-1 (1N-(9-[(2S,5R)-5-{[bis(4-methoxyphenyl)(phenyl)methoxy]methyl}-3,4-dihydroxytetrahydrofuran-2-yl]-9H-purin-6-yl)benzamide)).; modified_base 7..9 OTHE; modified_base 1 OTHER; 2'-methoxy and 5'-thiovinylphosphonate modified nucleotide; modified_base 2 OTHER; 2'-fluoro and 5'-thiophosphate modified nucleotide; …) | – | – | – | 42.55 | 55.87 | 74.13
